Measured values reported in ChEMBL document CHEMBL6096698, “Discovery of a Selective and Orally Bioavailable RET Degrader with Effectiveness in Various Mutations” (J Med Chem, 2025).

Key:
[1] = tested on: BaF3; assay: Antiproliferative activity against mouse BaF3 cells stably expressing KIF5B-RET G810S mutant incubated for 72 hrs by CCK8 assay; assay type: functional, cell-based; details: BaF3, 72 h
[2] = tested on: BaF3; assay: Antiproliferative activity against mouse BaF3 cells stably expressing KIF5B-RET V804M mutant incubated for 72 hrs by CCK8 assay; assay type: functional, cell-based; details: BaF3, 72 h
[3] = tested on: BaF3; assay: Antiproliferative activity against mouse BaF3 cells stably expressing KIF5B-RET incubated for 72 hrs by CCK8 assay; assay type: functional, cell-based; details: BaF3, 72 h
[4] = tested on: BaF3; assay: Antiproliferative activity against mouse BaF3 cells stably expressing KIF5B-RET G810C mutant incubated for 72 hrs by CCK8 assay; assay type: functional, cell-based; details: BaF3, 72 h
[5] = tested on: BaF3; assay: PROTAC activity at CRBN/KIF5B-RET (unknown origin) expressed in mouse BaF3 cells assessed as induction of RET degradation at 10 nM incubated for 24 hrs by immunoblot analysis relative to control; assay type: cell-based
[6] = tested on: BaF3; assay: Antiproliferative activity against mouse BaF3 cells stably expressing KIF5B-RET G810R mutant incubated for 72 hrs by CCK8 assay; assay type: functional, cell-based; details: BaF3, 72 h
[7] = tested on: BaF3; assay: PROTAC activity at VHL/KIF5B-RET (unknown origin) expressed in mouse BaF3 cells assessed as induction of RET degradation at 10 nM incubated for 24 hrs by immunoblot analysis relative to control; assay type: cell-based

Row | SMILES | IC50 [1] | IC50 [2] | IC50 [3] | IC50 [4] | Activity [5] | IC50 [6] | Activity [7]
1 | COc1ccc(CN2C3CC2CN(c2ccc(-c4cc(N5CCC(N6CCN(CCCCCC#Cc7cccc8c7CN(C7CCC(=O)NC7=O)C8=O)CC6)CC5)cn5ncc(C#N)c45)cn2)C3)cn1 (stereo not drawn) | 105 nM | 27.6 nM | 12.5 nM | 61.8 nM | 40% | 737 nM | 
2 | COc1ccc(CN2C3CC2CN(c2ccc(-c4cc(N5CCN(C(=O)CCCNc6ccc7c(c6)C(=O)N(C6CCC(=O)NC6=O)C7=O)CC5)cn5ncc(C#N)c45)cn2)C3)cn1 (stereo not drawn) | 202 nM | 209 nM | 13.3 nM | 1410 nM | 41% | 1640 nM | 
3 | COc1ccc(CN2C3CC2CN(c2ccc(-c4cc(N5CCN(C(=O)CCCCCCC(=O)N[C@H](C(=O)N6C[C@H](O)C[C@H]6C(=O)N[C@@H](C)c6ccc(-c7scnc7C)cc6)C(C)(C)C)CC5)cn5ncc(C#N)c45)cn2)C3)cn1 | > 5000 nM | 372 nM | 177 nM | > 5000 nM |  | > 5000 nM | 17%
4 | COc1ccc(CN2C3CC2CN(c2ccc(-c4cc(N5CCN(CCC(=O)N[C@H](C(=O)N6C[C@H](O)C[C@H]6C(=O)N[C@@H](C)c6ccc(-c7scnc7C)cc6)C(C)(C)C)CC5)cn5ncc(C#N)c45)cn2)C3)cn1 | 723 nM | 126 nM | 86.8 nM | 254 nM |  | > 5000 nM | 29%
5 | COc1ccc(CN2C3CC2CN(c2ccc(-c4cc(N5CCN(CC6CCN(c7ccc8c(c7)C(=O)N(C7CCC(=O)NC7=O)C8=O)CC6)CC5)cn5ncc(C#N)c45)cn2)C3)cn1 (stereo not drawn) | 126 nM | 21.4 nM | 10.3 nM | 192 nM | 41% | 1890 nM | 
6 | COc1ccc(CN2C3CC2CN(c2ccc(-c4cc(N5CCN(C(=O)CCCNc6cccc7c6C(=O)N(C6CCC(=O)NC6=O)C7=O)CC5)cn5ncc(C#N)c45)cn2)C3)cn1 (stereo not drawn) | 272 nM | 142 nM | 12.2 nM | 1020 nM | 44% | 1140 nM | 
7 | COc1ccc(CN2C3CC2CN(c2ccc(-c4cc(N5CCN(C(=O)CCCCC(=O)N[C@H](C(=O)N6C[C@H](O)C[C@H]6C(=O)N[C@@H](C)c6ccc(-c7scnc7C)cc6)C(C)(C)C)CC5)cn5ncc(C#N)c45)cn2)C3)cn1 | > 5000 nM | > 5000 nM | 309 nM | > 5000 nM |  | > 5000 nM | 10%
8 | COc1ccc(CN2C3CC2CN(c2ccc(-c4cc(N5CCN(CCCCCCCCC(=O)N[C@H](C(=O)N6C[C@H](O)C[C@H]6C(=O)N[C@@H](C)c6ccc(-c7scnc7C)cc6)C(C)(C)C)CC5)cn5ncc(C#N)c45)cn2)C3)cn1 | 674 nM | 108 nM | 14.2 nM | 522 nM |  | 1880 nM | 38%
9 | COc1ccc(CN2C3CC2CN(c2ccc(-c4cc(N5CCN(C(=O)CCCCCNc6ccc7c(c6)C(=O)N(C6CCC(=O)NC6=O)C7=O)CC5)cn5ncc(C#N)c45)cn2)C3)cn1 (stereo not drawn) | 125 nM | 17.4 nM | 6.8 nM | 232 nM | 49% | 811 nM | 
10 | COc1ccc(CN2C3CC2CN(c2ccc(-c4cc(N5CCN(C6CCN(c7ccc8c(c7)C(=O)N(C7CCC(=O)NC7=O)C8=O)CC6)CC5)cn5ncc(C#N)c45)cn2)C3)cn1 (stereo not drawn) | > 5000 nM | 38.4 nM | 15.7 nM | 372 nM | 36% | 750 nM | 
11 | COc1ccc(CN2C3CC2CN(c2ccc(-c4cc(N5CCC(N6CCN(CCCC#Cc7cccc8c7C(=O)N(C7CCC(=O)NC7=O)C8=O)CC6)CC5)cn5ncc(C#N)c45)cn2)C3)cn1 (stereo not drawn) | 63.7 nM | 9.3 nM | 4.3 nM | 54.3 nM | 62% | 206 nM | 
12 | COc1ccc(CN2C3CC2CN(c2ccc(-c4cc(N5CCN(C(=O)CCCCCNc6cccc7c6C(=O)N(C6CCC(=O)NC6=O)C7=O)CC5)cn5ncc(C#N)c45)cn2)C3)cn1 (stereo not drawn) | 105 nM | 17.2 nM | 6.1 nM | 216 nM | 52% | 794 nM | 
13 | COc1ccc(CN2C3CC2CN(c2ccc(-c4cc(N5CCN(C(=O)CNc6ccc7c(c6)C(=O)N(C6CCC(=O)NC6=O)C7=O)CC5)cn5ncc(C#N)c45)cn2)C3)cn1 (stereo not drawn) | 176 nM | 178 nM | 16.5 nM | 1320 nM | 40% | 1210 nM | 
14 | COc1ccc(CN2C3CC2CN(c2ccc(-c4cc(N5CCN(CCCCC(=O)N[C@H](C(=O)N6C[C@H](O)C[C@H]6C(=O)N[C@@H](C)c6ccc(-c7scnc7C)cc6)C(C)(C)C)CC5)cn5ncc(C#N)c45)cn2)C3)cn1 | > 5000 nM | 279 nM | 229 nM | 852 nM |  | > 5000 nM | 15%
15 | COc1ccc(CN2C3CC2CN(c2ccc(-c4cc(N5CCC(N6CCN(CCCC#Cc7ccc8c(c7)C(=O)N(C7CCC(=O)NC7=O)C8=O)CC6)CC5)cn5ncc(C#N)c45)cn2)C3)cn1 (stereo not drawn) | 84.1 nM | 12.4 nM | 5.1 nM | 89.2 nM | 60% | 321 nM | 
16 | COc1ccc(CN2C3CC2CN(c2ccc(-c4cc(N5CCC(N6CCN(C(=O)CNc7ccc8c(c7)C(=O)N(C7CCC(=O)NC7=O)C8=O)CC6)CC5)cn5ncc(C#N)c45)cn2)C3)cn1 (stereo not drawn) | 81.9 nM | 16.6 nM | 5.3 nM | 206 nM | 52% | 572 nM | 
17 | COc1ccc(CN2C3CC2CN(c2ccc(-c4cc(N5CCN(C(=O)CCCCCCCCCCC(=O)N[C@H](C(=O)N6C[C@H](O)C[C@H]6C(=O)N[C@@H](C)c6ccc(-c7scnc7C)cc6)C(C)(C)C)CC5)cn5ncc(C#N)c45)cn2)C3)cn1 | 552 nM | 85.3 nM | 35.4 nM | 818 nM |  | 1330 nM | 24%
18 | COc1ccc(CN2C3CC2CN(c2ccc(-c4cc(N5CCC(N6CCN(C(=O)CCCNc7ccc8c(c7)C(=O)N(C7CCC(=O)NC7=O)C8=O)CC6)CC5)cn5ncc(C#N)c45)cn2)C3)cn1 (stereo not drawn) | 127 nM | 152 nM | 14.9 nM | 831 nM | 39% | 812 nM | 
19 | COc1ccc(CN2C3CC2CN(c2ccc(-c4cc(N5CCN(C(=O)CCCCCCCNc6ccc7c(c6)C(=O)N(C6CCC(=O)NC6=O)C7=O)CC5)cn5ncc(C#N)c45)cn2)C3)cn1 (stereo not drawn) | 102 nM | 14.1 nM | 5.7 nM | 228 nM | 52% | 714 nM | 
20 | COc1ccc(CN2C3CC2CN(c2ccc(-c4cc(N5CCC(N6CCN(C(=O)CCCCCCCNc7ccc8c(c7)C(=O)N(C7CCC(=O)NC7=O)C8=O)CC6)CC5)cn5ncc(C#N)c45)cn2)C3)cn1 (stereo not drawn) | 86.1 nM | 14.2 nM | 3.4 nM | 190 nM | 58% | 614 nM | 
21 | COc1ccc(CN2C3CC2CN(c2ccc(-c4cc(N5CCN(C(=O)CNc6cccc7c6C(=O)N(C6CCC(=O)NC6=O)C7=O)CC5)cn5ncc(C#N)c45)cn2)C3)cn1 (stereo not drawn) | 384 nM | 190 nM | 19 nM | 1380 nM | 33% | 1770 nM | 
22 | COc1ccc(CN2C3CC2CN(c2ccc(-c4cc(N5CCC(N6CCN(C(=O)CNc7cccc8c7C(=O)N(C7CCC(=O)NC7=O)C8=O)CC6)CC5)cn5ncc(C#N)c45)cn2)C3)cn1 (stereo not drawn) | 89.8 nM | 15.3 nM | 14.4 nM | 198 nM | 36% | 626 nM | 
23 | COc1ccc(CN2C3CC2CN(c2ccc(-c4cc(N5CCC(N6CCN(C(=O)CCCCCCCNc7cccc8c7C(=O)N(C7CCC(=O)NC7=O)C8=O)CC6)CC5)cn5ncc(C#N)c45)cn2)C3)cn1 (stereo not drawn) | 93.5 nM | 17.8 nM | 5.9 nM | 212 nM | 50% | 672 nM | 
